# Test results published in ChEMBL document CHEMBL3885881, “DrugMatrix”.
# Species on record: Rattus norvegicus
# Test: DrugMatrix - Regimen: Daily Repeat
# Assay type: toxicity, organism-based, Sprague-Dawley
# Set-up: regimen Daily Repeat, gender Male, age 6-8 weeks
# Conditions: in vivo, po, 0 mg/kg, route oral GAVAGE, dose level Control, vehicle .5 % CMC; for ABSOLUTE BASOPHIL / ABSOLUTE EOSINOPHIL / ABSOLUTE LYMPHOCYTE / ABSOLUTE MONOCYTE / ABSOLUTE SEGMENTED NEUTROPHIL / BASOPHIL / EOSINOPHIL / ERYTHROCYTE COUNT / HEMATOCRIT / HEMOGLOBIN / LEUKOCYTE COUNT / LYMPHOCYTE / MEAN CORPUSCULAR HEMOGLOBIN / MEAN CORPUSCULAR HEMOGLOBIN CONCENTRATION / MEAN CORPUSCULAR VOLUME / MONOCYTE / NEUTROPHIL / NUCLEATED RED BLOOD CELLS / PLATELET COUNT: tissue Blood; for ALANINE AMINOTRANSFERASE / ALBUMIN / ALKALINE PHOSPHATASE / ASPARTATE AMINOTRANSFERASE / BLOOD UREA NITROGEN / CARBON DIOXIDE / CHLORIDE / CHOLESTEROL / CREATINE PHOSPHOKINASE / CREATININE / GLUCOSE / LACTATE DEHYDROGENASE / LIPASE / PHOSPHORUS / POTASSIUM / SODIUM / TOTAL BILIRUBIN / TOTAL PROTEIN / URIC ACID: tissue Plasma
smiles,measurement,setting,value
C[C@H]1O[C@@H](n2cc(F)c(=O)[nH]c2=O)[C@H](O)[C@@H]1O [DOXIFLURIDINE],ABSOLUTE BASOPHIL,"72 h, time 3 day",0 CELLS/uL
same,ABSOLUTE EOSINOPHIL,"72 h, time 3 day",0 CELLS/uL
same,ABSOLUTE LYMPHOCYTE,"72 h, time 3 day",12191.17 CELLS/uL
same,ABSOLUTE MONOCYTE,"72 h, time 3 day",183.17 CELLS/uL
same,ABSOLUTE SEGMENTED NEUTROPHIL,"72 h, time 3 day",1192.33 CELLS/uL
same,BASOPHIL,"72 h, time 3 day",0%
same,EOSINOPHIL,"72 h, time 3 day",0%
same,ERYTHROCYTE COUNT,"72 h, time 3 day",5.51 x10E6/uL
same,HEMATOCRIT,"72 h, time 3 day",35.45%
same,HEMOGLOBIN,"72 h, time 3 day",13.82 G/DL
same,LEUKOCYTE COUNT,"72 h, time 3 day",13.57 x10E3/uL
same,LYMPHOCYTE,"72 h, time 3 day",89.83%
same,MEAN CORPUSCULAR HEMOGLOBIN,"72 h, time 3 day",25.1 pg
same,MEAN CORPUSCULAR HEMOGLOBIN CONCENTRATION,"72 h, time 3 day",38.98 G/DL
same,MEAN CORPUSCULAR VOLUME,"72 h, time 3 day",64.42 fL
same,MONOCYTE,"72 h, time 3 day",1.33%
same,NEUTROPHIL,"72 h, time 3 day",8.83%
same,NUCLEATED RED BLOOD CELLS,"72 h, time 3 day",0 /100WBC
same,PLATELET COUNT,"72 h, time 3 day",1118.17 x10E3/uL
same,ALANINE AMINOTRANSFERASE,"72 h, time 3 day",55 u/L
same,ALBUMIN,"72 h, time 3 day",4.15 G/DL
same,ALKALINE PHOSPHATASE,"72 h, time 3 day",449.5 u/L
same,ASPARTATE AMINOTRANSFERASE,"72 h, time 3 day",112.83 u/L
same,BLOOD UREA NITROGEN,"72 h, time 3 day",17.33 mg/dL
same,CARBON DIOXIDE,"72 h, time 3 day",29.5 mmol/L
same,CHLORIDE,"72 h, time 3 day",101 MEQ/L
same,CHOLESTEROL,"72 h, time 3 day",70 mg/dL
same,CREATINE PHOSPHOKINASE,"72 h, time 3 day",1325.83 u/L
same,CREATININE,"72 h, time 3 day",0.18 mg/dL
same,GLUCOSE,"72 h, time 3 day",171.5 mg/dL
same,LACTATE DEHYDROGENASE,"72 h, time 3 day",386 u/L
same,LIPASE,"72 h, time 3 day",10 u/L
same,PHOSPHORUS,"72 h, time 3 day",11.57 mg/dL
same,POTASSIUM,"72 h, time 3 day",6.21 MEQ/L
same,SODIUM,"72 h, time 3 day",141.65 MEQ/L
same,TOTAL BILIRUBIN,"72 h, time 3 day",0.15 mg/dL
same,TOTAL PROTEIN,"72 h, time 3 day",5.75 G/DL
same,URIC ACID,"72 h, time 3 day",1.28 mg/dL
same,ABSOLUTE BASOPHIL,"120 h, time 5 day",0 CELLS/uL
same,ABSOLUTE EOSINOPHIL,"120 h, time 5 day",138.17 CELLS/uL
same,ABSOLUTE LYMPHOCYTE,"120 h, time 5 day",13283.17 CELLS/uL
same,ABSOLUTE MONOCYTE,"120 h, time 5 day",303.83 CELLS/uL
same,ABSOLUTE SEGMENTED NEUTROPHIL,"120 h, time 5 day",1308.17 CELLS/uL
same,BASOPHIL,"120 h, time 5 day",0%
same,EOSINOPHIL,"120 h, time 5 day",1%
same,ERYTHROCYTE COUNT,"120 h, time 5 day",5.32 x10E6/uL
same,HEMATOCRIT,"120 h, time 5 day",33.8%
same,HEMOGLOBIN,"120 h, time 5 day",13.63 G/DL
same,LEUKOCYTE COUNT,"120 h, time 5 day",15.03 x10E3/uL
same,LYMPHOCYTE,"120 h, time 5 day",88.33%
same,MEAN CORPUSCULAR HEMOGLOBIN,"120 h, time 5 day",25.68 pg
same,MEAN CORPUSCULAR HEMOGLOBIN CONCENTRATION,"120 h, time 5 day",40.35 G/DL
same,MEAN CORPUSCULAR VOLUME,"120 h, time 5 day",63.67 fL
same,MONOCYTE,"120 h, time 5 day",1.83%
same,NEUTROPHIL,"120 h, time 5 day",8.83%
same,NUCLEATED RED BLOOD CELLS,"120 h, time 5 day",0 /100WBC
same,PLATELET COUNT,"120 h, time 5 day",1097.5 x10E3/uL
same,ALANINE AMINOTRANSFERASE,"120 h, time 5 day",54.5 u/L
same,ALBUMIN,"120 h, time 5 day",4.27 G/DL
same,ALKALINE PHOSPHATASE,"120 h, time 5 day",337 u/L
same,ASPARTATE AMINOTRANSFERASE,"120 h, time 5 day",94.67 u/L
same,BLOOD UREA NITROGEN,"120 h, time 5 day",17 mg/dL
same,CARBON DIOXIDE,"120 h, time 5 day",28.33 mmol/L
same,CHLORIDE,"120 h, time 5 day",101.5 MEQ/L
same,CHOLESTEROL,"120 h, time 5 day",71.33 mg/dL
same,CREATINE PHOSPHOKINASE,"120 h, time 5 day",628.17 u/L
same,CREATININE,"120 h, time 5 day",0.19 mg/dL
same,GLUCOSE,"120 h, time 5 day",177.83 mg/dL
same,LACTATE DEHYDROGENASE,"120 h, time 5 day",500.5 u/L
same,LIPASE,"120 h, time 5 day",9.5 u/L
same,PHOSPHORUS,"120 h, time 5 day",12.3 mg/dL
same,POTASSIUM,"120 h, time 5 day",5.63 MEQ/L
same,SODIUM,"120 h, time 5 day",143.03 MEQ/L
same,TOTAL BILIRUBIN,"120 h, time 5 day",0.2 mg/dL
same,TOTAL PROTEIN,"120 h, time 5 day",6.02 G/DL
same,URIC ACID,"120 h, time 5 day",1.5 mg/dL
